Experimental data as given in ChEMBL document CHEMBL3616476, “Expanding the structural diversity of Bcr-Abl inhibitors: Hybrid molecules based on GNF-2 and Imatinib” (Bioorg Med Chem Lett, 2015).
pIC50: −log10 of the molar value.

Columns and labels:
K562 = test: cells; conditions: Homo sapiens, K562, 48 h
Bcr/Abl fusion protein = Bcr/Abl fusion protein (Homo sapiens, UniProt P00519); test: Inhibition of Bcr-Abl (unknown origin) after 1 hr by luminescence assay; type: protein assay
K562 (Homo sapiens) = test: Antiproliferative activity against human K562 cells by MTT assay

Sequence of Bcr/Abl fusion protein (P00519 whole entry, the tested form may be a part): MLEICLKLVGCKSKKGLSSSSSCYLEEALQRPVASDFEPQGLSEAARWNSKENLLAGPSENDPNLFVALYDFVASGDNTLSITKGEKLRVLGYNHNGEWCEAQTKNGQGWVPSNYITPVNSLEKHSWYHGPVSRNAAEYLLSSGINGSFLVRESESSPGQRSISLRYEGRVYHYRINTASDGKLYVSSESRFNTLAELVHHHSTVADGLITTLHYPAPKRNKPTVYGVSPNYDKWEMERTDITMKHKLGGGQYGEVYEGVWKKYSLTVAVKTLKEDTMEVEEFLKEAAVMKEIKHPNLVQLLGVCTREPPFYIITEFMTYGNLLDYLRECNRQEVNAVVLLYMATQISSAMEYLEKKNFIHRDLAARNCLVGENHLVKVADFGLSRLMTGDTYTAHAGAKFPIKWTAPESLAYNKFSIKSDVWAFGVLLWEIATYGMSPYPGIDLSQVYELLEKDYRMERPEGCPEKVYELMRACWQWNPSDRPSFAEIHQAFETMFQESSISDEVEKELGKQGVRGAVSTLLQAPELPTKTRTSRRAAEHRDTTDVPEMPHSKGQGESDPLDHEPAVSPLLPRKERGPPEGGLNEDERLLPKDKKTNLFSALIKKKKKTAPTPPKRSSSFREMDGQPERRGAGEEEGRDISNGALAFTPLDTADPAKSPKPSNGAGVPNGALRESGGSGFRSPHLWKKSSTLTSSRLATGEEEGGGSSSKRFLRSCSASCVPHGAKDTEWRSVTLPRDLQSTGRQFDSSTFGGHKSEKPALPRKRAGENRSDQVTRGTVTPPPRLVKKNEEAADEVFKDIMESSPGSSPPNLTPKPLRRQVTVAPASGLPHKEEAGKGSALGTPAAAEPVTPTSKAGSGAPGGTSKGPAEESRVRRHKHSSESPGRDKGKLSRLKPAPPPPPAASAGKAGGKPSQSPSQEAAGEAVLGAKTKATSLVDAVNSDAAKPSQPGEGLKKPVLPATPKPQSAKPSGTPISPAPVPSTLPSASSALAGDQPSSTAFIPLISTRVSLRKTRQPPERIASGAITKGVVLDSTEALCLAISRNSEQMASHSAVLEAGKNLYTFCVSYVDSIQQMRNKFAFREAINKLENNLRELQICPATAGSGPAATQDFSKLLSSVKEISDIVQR
Sequence of Bcr/Abl fusion protein (P11274 whole entry, further chain, the tested form may be a part): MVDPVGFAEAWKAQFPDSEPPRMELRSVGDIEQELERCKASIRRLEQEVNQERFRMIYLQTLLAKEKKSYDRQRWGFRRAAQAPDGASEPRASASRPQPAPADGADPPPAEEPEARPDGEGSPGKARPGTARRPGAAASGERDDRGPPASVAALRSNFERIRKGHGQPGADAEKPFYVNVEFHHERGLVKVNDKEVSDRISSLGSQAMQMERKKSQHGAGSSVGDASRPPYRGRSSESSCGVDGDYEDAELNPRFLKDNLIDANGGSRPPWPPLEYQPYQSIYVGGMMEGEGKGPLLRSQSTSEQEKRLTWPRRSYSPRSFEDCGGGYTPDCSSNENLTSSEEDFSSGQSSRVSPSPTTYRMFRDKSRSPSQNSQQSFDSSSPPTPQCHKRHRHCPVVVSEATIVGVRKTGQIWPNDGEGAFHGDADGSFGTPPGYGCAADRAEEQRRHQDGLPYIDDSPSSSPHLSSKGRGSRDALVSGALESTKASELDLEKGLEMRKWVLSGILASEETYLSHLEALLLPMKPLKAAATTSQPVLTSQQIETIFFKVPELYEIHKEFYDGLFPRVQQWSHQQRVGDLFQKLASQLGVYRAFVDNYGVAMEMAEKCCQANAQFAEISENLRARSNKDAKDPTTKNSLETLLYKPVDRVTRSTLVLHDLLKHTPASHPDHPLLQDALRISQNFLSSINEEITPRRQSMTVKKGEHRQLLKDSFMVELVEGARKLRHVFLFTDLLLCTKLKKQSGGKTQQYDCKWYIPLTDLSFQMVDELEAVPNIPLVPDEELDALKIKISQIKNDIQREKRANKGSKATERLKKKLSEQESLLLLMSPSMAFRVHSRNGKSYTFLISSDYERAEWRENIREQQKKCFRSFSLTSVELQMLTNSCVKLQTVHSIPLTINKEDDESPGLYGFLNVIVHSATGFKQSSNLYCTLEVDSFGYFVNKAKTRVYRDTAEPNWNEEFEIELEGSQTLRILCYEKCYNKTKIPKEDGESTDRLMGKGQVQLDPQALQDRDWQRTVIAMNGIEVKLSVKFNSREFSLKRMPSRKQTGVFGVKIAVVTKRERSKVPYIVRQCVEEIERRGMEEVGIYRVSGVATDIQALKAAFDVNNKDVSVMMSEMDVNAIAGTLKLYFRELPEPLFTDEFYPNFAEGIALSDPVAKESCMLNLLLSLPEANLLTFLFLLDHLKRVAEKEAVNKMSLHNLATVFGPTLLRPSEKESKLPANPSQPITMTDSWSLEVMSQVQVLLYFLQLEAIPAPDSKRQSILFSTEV

SMILES | pIC50 (K562) | pIC50 (Bcr/Abl fusion protein) | pIC50 (K562 (Homo sapiens))
COc1ccc(Nc2cc(-c3ccc(C(=O)NCCNC(=O)c4cccc(C(F)(F)F)c4)cc3)ncn2)cc1 | 4.18 | 5.59 | 
COc1ccc(Nc2cc(-c3ccc(C(=O)NCCNC(=O)c4cccc(OC)c4)cc3)ncn2)cc1 | 4.95 | 5.07 | 
COc1ccc(Nc2cc(-c3ccc(C(=O)NCCNC(=O)c4ccccc4C)cc3)ncn2)cc1 | 4.41 | 4.84 | 
COc1ccc(Nc2cc(-c3ccc(C(=O)NCCNC(=O)c4ccc(C(C)(C)C)cc4)cc3)ncn2)cc1 | 6.08 | < 4.00 | 
COc1ccc(Nc2cc(-c3ccc(C(=O)NCCNC(=O)c4cccc(N(C)C)c4)cc3)ncn2)cc1 | 6.07 | 5.03 | 
COc1ccc(Nc2cc(-c3ccc(C(=O)NCCNC(=O)c4cccc(F)c4)cc3)ncn2)cc1 | 4.47 | 4.95 | 
COc1ccc(Nc2cc(-c3ccc(C(=O)NCCNC(=O)c4ccccc4Cl)cc3)ncn2)cc1 | 6.19 | 5.03 | 
COc1ccc(Nc2cc(-c3ccc(C(=O)NCCNC(=O)c4ccc(F)cc4)cc3)ncn2)cc1 | 4.96 |  | 
COc1ccc(Nc2cc(-c3ccc(C(=O)NCCNC(=O)c4ccc(F)c(F)c4)cc3)ncn2)cc1 | 5.21 | 5.36 | 
COc1ccc(Nc2cc(-c3ccc(C(=O)NCCNC(=O)c4c(F)cccc4Cl)cc3)ncn2)cc1 | 5.07 | 5.21 | 
COc1ccc(Nc2cc(-c3ccc(C(=O)N4CCN(C(=O)c5ccccc5F)CC4)cc3)ncn2)cc1 | 5.05 | 5.05 | 
COc1ccc(Nc2cc(-c3ccc(C(=O)N4CCN(C(=O)c5ccccc5Cl)CC4)cc3)ncn2)cc1 | 4.13 |  | 
COc1ccc(Nc2cc(-c3ccc(C(=O)N4CCN(C(=O)c5ccc(F)cc5)CC4)cc3)ncn2)cc1 | 4.45 | 7.77 | 
COc1ccc(Nc2cc(-c3ccc(C(=O)N4CCN(C(=O)c5ccc(OC)cc5)CC4)cc3)ncn2)cc1 | < 4.00 | < 4.00 | 
COc1ccc(Nc2cc(-c3ccc(C(=O)N4CCN(C(=O)c5cccc(F)c5)CC4)cc3)ncn2)cc1 | 4.37 |  | 
COc1ccc(Nc2cc(-c3ccc(C(=O)N4CCN(C(=O)c5ccc(Cl)cc5Cl)CC4)cc3)ncn2)cc1 | 4.46 |  | 4.46
COc1ccc(Nc2cc(-c3ccc(C(=O)N4CCN(C(=O)c5ccc(F)c(F)c5)CC4)cc3)ncn2)cc1 | 4.81 |  | 4.81
COc1ccc(Nc2cc(-c3ccc(C(=O)N4CCN(C(=O)c5cccc(C(F)(F)F)c5)CC4)cc3)ncn2)cc1 | 4.28 |  | 4.28
COc1ccc(Nc2cc(-c3ccc(C(=O)N4CCN(C(=O)c5cccc(C)c5)CC4)cc3)ncn2)cc1 | < 4.00 | < 4.00 | 
COc1ccc(Nc2cc(-c3ccc(C(=O)N4CCN(C(=O)c5cccc(N(C)C)c5)CC4)cc3)ncn2)cc1 | < 4.00 |  | < 4.00
